Square brackets hold non-standard residues; d marks the D form. Primed or numbered codes have the meaning given here. Ends that are not written are not given here. Lys(N3) = [N-]=[N+]=NCCCC[C@H](N)C(=O)O; PEG4′ = not defined here

For assay [1], the system named is Primary Human Aortic Endothelial Cells (HAEC). Description: Human aortic endothelial cells grown 48 h on bare or peptide-coated nitinol disks; F-actin / CD31 staining and image analysis. The format is cell-based. How it is done:
Nitinol disks are left untouched (bare metal) or coated with a domain 1, domain 2 or domain 1 and 2 CD31 analog peptide. The tested peptide is grafted to the nitinol disk following a polydopamine, DBCO-PEG4-amine and azide CD31 derivative peptide using a sequential dip-coating layering procedure. After this step, all the disks are incubated with Human aortic endothelial cells for 48 h. Disks are then rinsed and the cells are fixed in a formalin solution before staining. The staining is fulfilled using phalloidin coupled to AlexaFluor®488 dye (green fluorescence for Actin), DAPI is used for DNA staining and a domain 1 CD31 antibody coupled to APC is used for external Domain 1 staining. The cell adhesion and Actin/CD31 expression was evaluated by image analysis of the surface after staining.
In particular, as per FIG. 2 the bare or coated nitinol disks were placed at the bottom of culture wells. Primary Human Aortic Endothelial Cells (HAEC) were allowed to grow on the disks for a period of 48 h. The disks were thereafter rinsed with phosphate buffered saline, fixed in formalin, and processed for fluorescence microscopy. Disk-adherent cells were immersed in a solution comprising Hoechst 33342 (1 μg/ml, to stain the nuclei), phalloidin coupled to AlexaFluor®488 dye (0.5 μM, to stain F-actin fibers) and a monoclonal antibody directed against CD31 domain 1, coupled to allophycocyanin (to detect the presence and localization of intact CD31 at the cell surface) for 1 hour at 37° C., washed and mounted face down on glass bottom imaging chambers for imaging with an inverted fluorescence microscope.
Surface type is indicated on the Y axis, data are expressed as average±SD (N=6/surface type). Each dot corresponds to a specific surface modification. The F-actin expression relates the cellular stress of the cell in presence of the exogenous material.
In FIG. 4 the surface type is indicated on the Y axis. Each dot corresponds to a specific surface modification. Data are expressed as “Integrated Density” average±SD (N=6/surface type). CD31 expression relates the capacity of endothelial cells to adopt a physiologic phenotype while growing on a given substrate. An important variability is observed in terms of CD31 expression by HAEC according to the surface modification of the nitinol disks.
The “mirror” bars of FIG. 5 report the average Integrated Density of F-actin (left) and of CD31 (right) staining for each of the indicated (Y axis) type of peptide coated onto the disk surface and bare disks. Data are sorted (from the top to the bottom) according to the increase in the cellular stress (actin expression) of each coating. As shown on the figure, the degree of cellular stress (as detected by a high actin expression) and impaired endothelial phenotype (documented by a low CD31 expression) is evident on HAEC grown onto bare metal disks.
The data shown in FIG. 6 are expressed as the ratio between CD31 and F-actin expression.
The effect of different peptides, belonging to the different groups, were tested in batches following the same protocol as in FIG. 6. Different peptides from each group were tested in batches and the effect of individual peptides was repeatedly assessed in separate experiments. Data from all experiments were obtained by computer-assisted analysis of images of the disk side covered with endothelial cells, captured in the blue, green and red channel of an inverted fluorescence microscope. The functional score of the peptides belonging to the different groups was calculated by multiplying the number of cells (as detected by the number of blue, Dapi+ nuclei) for the integrated density of CD31 expression (red signal provided by the binding of a mouse anti-human CD31 monoclonal antibody, clone 9G11, conjugated allophycocyanin) and their product being divided for the integrated density of the F-actin polymerization (Phalloidin coupled to a green fluorochrome). […]

The subject of assay [2] is aneurysm-carrying artery and abdominal aorta. Description: Flow-diverter stents (CFD) implanted in rabbit aneurysm-carrying artery and abdominal aorta; SEM and histopathology (Example 3). The format is in vivo, New Zealand White rabbits. How it is done:
Flow-diverter stents (CFD) are braided meshes made of nitinol, from Sinomed. They are coated by one of the following coatings: • 1. SP1072 peptide according to the invention, or • 2. Hydrophilic polymer eG NTMA (obtained from the electrografting of N-[Tris (hydroxymethyl) Methyl]Acrylamide).
• 1) Transfer each stent in a 5 mL polypropylene round bottom tube (Bd Falcon Ref 352063). Insure the stent drops at the bottom of the tube. • 2) Add 4.5 mL of a 2 mg/mL PDA solution per tube. Homogenize each tube on a rotary wheel (approx. 20 rpm) overnight (18+/−2 h) at room temperature and protect from light. […] The stent color should change from silver to brown/black. After the incubation period the solution will become black with small PDA aggregates • 3) Transfer each stent in a new tube and rinse 3-times with demineralized water. homogenize on the rotary wheel 5 min at each rinse. • 4) Leave the last rinse and sonicate the tube for at least 30 s to discard any remaining PDA chunk. • 5) Transfer each stent in a 2 mL—Eppendorf tube containing 1.8 mL of DBCO (300 μM) per tube. Homogenize each tube on a rotary wheel (approx. 20 rpm) overnight at room temperature and protect from light. • 6) Transfer each stent in a new tube and rinse 3-times with demineralized water. Homogenize on the rotary well 5 min at each rinse. • 7) Transfer each stent in a 2 mL—Eppendorf tube containing 1.8 mL of CD31 peptide (50 μg/mL) per tube. Homogenize each tube on a rotary wheel (approx. 20 rpm) for 2 hours at room temperature and protect from light. • 8) Transfer each stent in a new tube and rinse 3-times with demineralized water. Homogenize on the rotary well 5 min at each rinse. • 9) Soak each stent in absolute Ethanol for 5 seconds before letting them dry.
Comparative hydrophilic polymer eG NTMA-coated flow diverter stents were obtained via the following protocol: • (1) Cleaning pretreatment: The stent frames were sonicated in acetone, ethanol, and water for injection for 10 min, respectively. • (2) Electro-grafting solution preparation: N-[tris(hydroxymethyl)methyl]acrylamide, concentration 0.30 M; NaNO3, concentration 0.05 M; 4-nitrophenyl tetrafluoroborate diazonium salt, 0.005 M; the remaining amount is DMSO solvent. • (3) Electro-grafting process: the pretreated stents were used as the working electrode, and a platinum foil was used as the counter electrode, which was submerged in the electro-grafting solution, and a linear sweep voltage between −0.1 and −3.0 V and back was applied between the two electrodes with a voltage scan rate of 0.05 V/s for 10 cycles. • (4) Coating smoothing and drying: the electrografted scaffold was smoothed in acetone (2 L) with nitrogen bubbling (rate 0.5-10 L/min) for 10 min and placed in a vacuum drying oven at 40° C. for 2 h.
A total of 8 healthy New Zealand White rabbits (including 2 spare animals), male and female, weighing about 3 kg, were included in this study. A total of 3 observation time points of 7 days, 30 days and 60 days postoperatively were set. The experiment was divided into two steps: 1) aneurysm animal modeling; 2) implantation of a dense mesh stent in the aneurysm-carrying artery and abdominal aorta for each animal. The stent implantation in the aneurysm-carrying artery was to be used to examine the safety and effectiveness of the stent in treating aneurysms, and the stent implantation in the abdominal aorta, covering a pair of lumbar arteries, was to be used to examine the safety of the tested stent.
Step 1) (aneurysm animal modeling) was performed as follows: • (a) The rabbit is placed supine on the operating table and the neck is shaved. […] Every 20 minutes, saline drips were injected into the rabbit's cervical vessels and vagus nerve to keep them moistened. […] Continue to use antibiotics for 3-5 days after surgery. […]

Assay [3] shares this test system. Description: Flow-diverter stents (CFD) in rabbits without aspirin or clopidogrel after implantation (Example 4). The format is in vivo, New Zealand White rabbits. To be noted: day 7, n=3, no aspirin nor clopidogrel after implantation; preliminary. From the text:
The same materials and protocol as in Example 3 were used, except that: • Only 3 animals were used for each condition, and • No aspirin nor clopidogrel was given to animals after the implantation.

The mark [4] stands for this setting: day 7, aneurysm-carrying artery.
[5] abbreviates: day 60, aneurysm-carrying artery.

For the substance “YKSTVIVNNKEKTTAE-PEG4-K(N3)-CONH2 (YKSTVIVNNKEKTTAE[PEG4′][Lys(N3)]-NH2) [SP1072]”, the CD31/Actin score entry in assay [1] (Example 2, FIG. 25, repeated experiments (SP547, SP548 only one measure)) is reported as “significantly higher than those obtained by the bare metal disks or by disks coated with PDA alone”. Moreover, the “CD31 expression (physiologic endothelial phenotype), Integrated Density” value in assay [1] (HAEC 48 h on coated nitinol disks, compared to other modified disks and bare controls, FIGS. 2, 4, 5) is reported as “evident positive effect in terms of CD31 expression”. Besides, the “ratio between CD31 and F-actin expression” value in assay [1] (compared to bare metal and disks coated with PDA only, FIG. 6) is recorded as “higher CD31/actin ratio”. For the same substance, in assay [2] (Example 3 overall), the “endothelialization of inner surface of flow-diverter stents (conclusion)” value was “promotes early endothelialization on the inner surface of the flow-diverter stents”; the “endothelialization of the device at sites other than the aneurysm entry (conclusion)” value is “endothelialization of the device is fast and complete without apparent inflammation nor neointima”; the “neo arterial wall at the entry of the aneurysm sac (conclusion)” value was “promotes the growth of an organized, blood-impermeable neo arterial wall at the entry of the aneurysm sac”. Moreover, in assay [2] (setting [4]), the “neo-wall covering the aneurysmal neck (histopathology)” value was “compact and rich in extracellular matrix (dark grey) and void of inflammation (no black nuclei) or thrombosis”; the “organization of thrombus in the aneurysmal sac (histopathology)” value was “organized”. Also, in assay [2] (setting [5]), the “organization of thrombus in the aneurysmal sac (histopathology)” value is “very well organized” and the “reaction of arterial wall in contact with stent struts (histopathology)” value is given as “absence of inflammation/thrombosis of the arterial wall that is already in contact with the stent struts”. The “survival and thrombus after implantation” value in assay [3] is recorded as “still alive with no thrombus”.

For the origin of these results see patent US20250381324A1, “CD31 MIMETIC COATING FOR ENDOVASCULAR STENT” (INSERM (Institut National de la Santé et de la Recherche …, priority 2021, published 2025).
